Data: patent US20220339143A1, “TAK-925 FOR USE IN TREATING NARCOLEPSY” (Takeda Pharmaceutical Company Limited, priority 2019, published 2022)
Where “and” joins values, the source holds several entries; their conditions need not be identical. Equal values may be shown once.

Assays:
[1] = system: patients with narcolepsy type 1 (NT1); assay: Sleep latency in Maintenance of Wakefulness Test (MWT), single dose (Cohorts 5, 6, 7); assay type: in vivo, human; conditions: for average sleep latency in MWT, mean (SD): NT1 (placebo 2.88); for Average Sleep Latency in MWT: Cohort 5, 6, 7
Protocol: In Part 2, NT1 patients received a single dose of Compound A or placebo administered as a continuous IV infusion over a 9-hour period during the day. A 40-minute Maintenance of Wakefulness Test (MWT) was conducted 4 times during the continuous IV infusion to assess effects on wakefulness in soporific conditions at 2, 4, 6 and 8 hours from start of infusion. Three cohorts of patients were enrolled (n=14 total).
The average sleep latency in the Maintenance Wakefulness Test (MWT)
Sleep related parameters in the MWT (sleep latency (SL) in each session).
The pharmacodynamics (PD) for sleepiness is shown in FIG. 8, which depicts the average post-dose MWT sleep latency for NT1 patients overall all dose time points. Due to the crossover design, some subjects in the placebo group were the same as some subjects in 5 mg-44.8 mg group.

[2] = system: patients with NT1; assay: KSS, multiple dose (Cohorts B1, B2); assay type: in vivo, human; conditions: 9 hours postdose
Protocol: The purpose of the study was to evaluate the safety, tolerability, pharmacokinetics and pharmacodynamics of Compound A after multiple IV administration in patients with NT1. NT1 patients were evaluated in Cohort B1 and B2 (Table 19). Compound A or placebo were administered via IV infusion over 9 hours once daily for 7 days. A total of 13 patients with NT1 were treated with Compound A or placebo (4, 4, and 5 subjects in the placebo, Compound A 11 mg, and Compound A 44 mg groups, respectively). In this part, potential efficacy of Compound A was evaluated with MWT, ESS, KSS, night-time PSG (NPSG), cataplexy frequency assessment, and PGI-C as an exploratory PD assessment.

Compound: COC(=O)N1CCC[C@H](NS(C)(=O)=O)[C@@H]1CO[C@H]1CC[C@@H](c2ccccc2)CC1 [Compound A, methyl (2R,3S)-3-((methylsulfonyl)amino)-2-(((cis-4-phenylcyclohexyl)oxy)methyl)piperidine-1-carboxylate]
- average sleep latency in MWT, LS mean difference (95% CI) minus placebo ([1]; 5 mg): 18.792 (11.987, 25.596) min
- average sleep latency in MWT, mean (SD) ([1]; 5 mg single 9 h IV infusion): 22.38 (10.125) min and 22.4 min and 22.38 min
- Sleep latency in MWT by visit, Mean ([1]; 5 mg, 10:00 (infusion start 7:45)): 25.25 min
- Sleep latency in MWT by visit, Mean ([1]; 5 mg, 12:00): 29.75 min
- Sleep latency in MWT by visit, Mean ([1]; 5 mg, 14:00): 8.92 min
- Sleep latency in MWT by visit, Mean ([1]; 5 mg, 16:00): 25.58 min
- average sleep latency in MWT, LS mean difference (95% CI) minus placebo ([1]; 11.2 mg): 36.063 (27.729, 44.396) min
- subjects achieving the maximum sleep latency (40 min) in MWT ([1]; 11.2 mg): 3 out of 4
- average sleep latency in MWT, mean (SD) ([1]; 11.2 mg single 9 h IV infusion): 37.59 (4.813) min and 37.6 min and 37.59 min
- Sleep latency in MWT by visit, Mean ([1]; 11.2 mg, 10:00): 37.38 min
- Sleep latency in MWT by visit, Mean ([1]; 11.2 mg, 14:00): 33.00 min
- Sleep latency in MWT by visit, Mean ([1]; 11.2 mg, 16:00): 40.00 min
- average sleep latency in MWT, LS mean difference (95% CI) minus placebo ([1]; 44.8 mg): 36.662 (27.344, 45.979) min
- average sleep latency in MWT, mean (SD) ([1]; 44.8 mg single 9 h IV infusion): 40.00 (0.000) min and 40 min
- subjects achieving the maximum sleep latency (40 min) in MWT ([1]; 44.8 mg, all four 40-min trials): 4 out of 4
- Sleep latency in MWT by visit, Mean ([1]; 44.8 mg, 10:00): 40.00 min
- Sleep latency in MWT by visit, Mean ([1]; 44.8 mg, 12:00): 40.00 min
- Sleep latency in MWT by visit, Mean ([1]; 44.8 mg, 14:00): 40.00 min
- Sleep latency in MWT by visit, Mean ([1]; 44.8 mg, 16:00): 40.00 min
- effect on wakefulness as measured by time to sleep onset on the MWT ([1]; 5, 11.2, 44.8 mg, NT1 patients): clear dose dependent effect
- Average Sleep Latency in MWT ([1]; Cmpd A 5 mg, Mean): 22.38 min
- Average Sleep Latency in MWT ([1]; Cmpd A 5 mg, Median): 21.69 min
- Average Sleep Latency in MWT ([1]; Cmpd A 11.2 mg, Mean): 37.59 min
- Average Sleep Latency in MWT ([1]; Cmpd A 11.2 mg, Median): 40.00 min
- Average Sleep Latency in MWT ([1]; Cmpd A 44.8 mg, Mean): 40.00 min
- Average Sleep Latency in MWT ([1]; Cmpd A 44.8 mg, Median): 40.00 min
- mean sleep latency in the lunch session (14:00) ([1]; higher dose groups of Compound A): over 30 min
- mean change from baseline in KSS ([2]; 11 mg, Day 1 (placebo 0.0)): −3.0
- mean change from baseline in KSS ([2]; 11 mg, Day 7 (placebo −0.3)): −2.0
- mean change from baseline in KSS ([2]; 44 mg, Day 1 (placebo 0.0)): −4.4
- mean change from baseline in KSS ([2]; 44 mg, Day 7 (placebo −0.3)): −4.6
